Results: patent US11472832B2, “Withanolides useful for the treatment of neurodegenerative diseases” (priority 2013, dated 2022)
pIC50: −log10 of the molar value. Where two headings read alike, the source gives them in different places.

What was measured:
NF-κB [1] = experiment: TNF-α-induced signalling activity in HEK293-NF-κB-luciferase reporter cell line; type: cell-based; settings: HEK-293 cells; for pIC50: TNF-alpha 40 ng/ml, 4 h, luciferase; for inhibition of NF-κB expression: TNF-alpha, 0.05 to 5 uM, FIG. 3
Procedure: Ten thousand hygromycin B-resistant HEK-293 cells were seeded per well in a 96-well plate (Corning, New-York) and allowed to adhere overnight. The next morning, the culture medium (DMEM+10% FBS) was removed and […] of fresh medium (DMEM without FBS) added to each well. […] Human recombinant TNF-alpha (R&D Systems, Minneapolis) was added one hour later at a final concentration of 40 ng/ml. Four hours later, the HEK-293 cells were rinsed with 1×PBS prior to the luciferase assay, which was performed according to the manufacturer's instructions (Bright-Glo™ luciferase assay system, Promega, Wis.).

NF-κB [2] = experiment: NF-κB luciferase reporter activity in BV2 microglial cells stimulated with LPS; type: cell-based; settings: BV-2 cells, LPS 100 ng/ml, 4 h
Procedure: An NF-κB specific luciferase reporter system in BV-2 microglial cells was first established. This cell line was generated by stable transfection of BV-2 cells with stable insertion of a luciferase reporter 4 kBwt luciferase plasmid and subsequent selection with hygomycin. LPS was used to stimulate NF-κB activity in these cells. Twenty-five thousand hygromycin B-resistant BV-2 cells were seeded per well in 24-well dishes and allowed to adhere overnight. The next morning, the culture medium (DMEM+10% FBS) was removed and 1 ml of fresh medium (DMEM without FBS) added to each well. The stock solutions of withanolides (2 mg/ml in DMSO) were diluted in 1×PBS to various concentration (0.05 to 5 uM) and added to the wells. LPS was added one hour later at a final concentration of 100 ng/ml. Four hours later, the BV-2 cells were rinsed with 1×PBS prior to proceeding with the luciferase assay that was performed according to the manufacturer's instructions (Bright-Glo™ luciferase assay system, Promega, Wis.).

[3] = system: TDP-43 A315T transgenic mice; settings: 5 mg/kg i.p. every 2 days for 15 weeks
Procedure: The TDP-43 A315T mouse model for ALS is fully described in Swamp, V et al., Brain 134: 2610-2626 2011.
Male and female TDP-43 A315T mice of approximately 9 months and 25-55 gm were included in the study, and were randomly assigned to three groups, as follows:
Group 2 (n=7) (the control group) received vehicle (2% polysorbate [Tween-80]/5% DMSO/93% saline); and
The injection volume at 12.5 mL/kg was based on the body weight of each individual animal at the start of the study.
Accelerating rotarod (as described in Gros-Louis, F., et al. Hum Mol Genet 17, 2691-2702 (2008)) was performed prior to first dosing and at weekly interval during the study. Testing was performed at 4-rpm speed with 0.25 rpm/s acceleration. Each mouse was subjected to three trials per session. The number of seconds each mouse remained on the rotarod apparatus for each trial was recorded.

C57BL/6 female mice = settings: i.p.; for clinical observations post-dosing: 65 mg/kg; for safety profile compared with WA: 20 to 65 mg/kg
[4] = system: LPS-induced astrogliosis (GFAP promoter luciferase reporter); settings: GFAP-luc mice, LPS inhaled, 4 mg/kg i.p. 2 h after LPS and 2 h before imaging, imaging 24 h after LPS
Procedure: In vivo bioluminescence imaging was performed to asses the inflammatory response in the cranial region.
GFAP-luc transgenic mice were used to test in vivo the efficacy of these analogs. In these transgenic mice, the firefly luciferase reporter gene is under the control of a 12 kb DNA fragment of the glial fibrillary acidic protein (GFAP) promoter (Caliper Life Sciences). The luciferase reporter is inducible following LPS administration resulting in GFAP transcriptional regulation. If the administration of test compounds following the injection of LPS decreases LPS-induced astrogliosis in GFAP-luc mice, this is visualized as a reduced bioluminescent signal upon imaging.
Transgenic mice under anesthesia were induced to inhale either 5 ul of a solution of LPS (1 mg/ml in 0.9% saline) or a solution of 0.9% saline alone followed 2 h later by an intraperitoneal (i.p.) injection of 0.5 ml of the test compounds (10% dilution in 0.9% saline) at a final concentration of 4 mg/kg. The following day, 2 h before imaging (24 h after the administration of the LPS solution), the transgenic mice were again injected with the withanolides as previously. Twenty minutes prior to imaging, the mice received an i.p. injection of the luciferase substrate D-luciferin (150 mg/kg). D-luciferin was dissolved in 0.9% saline to a final concentration of 20 mg/ml. […]

| Structure (SMILES) | pIC50 (NF-κB [1]) | inhibition of NF-κB expression (NF-κB [1]) | pIC50 (NF-κB [2]) | rotarod performance over the 15 week period [3] | mortality (C57BL/6 female mice; 55 mg/kg) | clinical observations post-dosing (C57BL/6 female mice) | mortality (C57BL/6 female mice; 65 mg/kg (highest dose tested)) | safety profile compared with WA (C57BL/6 female mice) | bioluminescent signal in brain (astrogliosis) compared to saline-DMSO [4] | pIC50 (NF-κB [1]; Homo sapiens, HEK293) | pIC50 (NF-κB [2]; Mus musculus) |
| --- | --- | --- | --- | --- | --- | --- | --- | --- | --- | --- | --- |
| COCC1=C(C)C[C@H]([C@@H](C)[C@H]2CC[C@H]3[C@@H]4C[C@H]5O[C@]56[C@@H](OC)C=CC(=O)[C@]6(C)[C@H]4CC[C@]23C)OC1=O [4,27-O-dimethyl WA, 4,27-O-dimethylwithaferin A] | 6.35 | inhibited NF-κB expression | 6.10 | – | – | – | – | – | – | – | – |
| CO[C@H]1C=CC(=O)[C@]2(C)[C@H]3CC[C@]4(C)[C@@H]([C@H](C)[C@H]5CC(C)=C(CO)C(=O)O5)CC[C@H]4[C@@H]3C[C@H]3O[C@]132 [4-O-methyl WA, 4-O-methylwithaferin A] | 6.49 | inhibited NF-κB expression | 6.01 | improved | no mortality | some weakness and a decrease in activity | no mortality | much better safety profile than WA | significant decrease | – | – |
| COCC1=C(C)C[C@H]([C@@H](C)[C@H]2CC[C@H]3[C@@H]4C[C@H]5O[C@]56[C@@H](O)C=CC(=O)[C@]6(C)[C@H]4CC[C@]23C)OC1=O [27-O-methyl WA, 27-O-methylwithaferin A] | 6.59 | inhibited NF-κB expression | 6.15 | improved | no mortality | some weakness and a decrease in activity | no mortality | much better safety profile than WA | significant decrease | – | – |
| CC1=C(CO)C(=O)O[C@@H]([C@@H](C)[C@H]2CC[C@H]3[C@@H]4C[C@H]5O[C@]56[C@@H](O)C=CC(=O)[C@]6(C)[C@H]4CC[C@]23C)C1 [WA, Withaferin A, reference compound] | – | – | – | – | – | – | – | – | – | 6.47 | 6.30 |
